According to PMC11992225, “Antibacterial compounds against non-growing and intracellular bacteria” (npj Antimicrobials and Resistance, 2025):
Converted amounts (≈) assume the structure as drawn. “And” between values parts separate entries of the source, which are not always exact repeats. Identical values can stand only once. Like-named read-outs stand apart in the source and are kept apart here.

Legend:
[1] = system: non-growing S. aureus DSM2569; assay: Dilution-regrowth assay (OD600, start-growth-time) on stationary-phase S. aureus; format: cell-based, Staphylococcus aureus; details: S. aureus, regrowth delay of non-growing bacteria, 1:4 CA-MHB pH 7.4, 24 h treatment, OD600 8 h after dilution, read-out: EC50
Method in brief: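 Non-growing S. aureus was tested in a dilution-regrowth format. Cells were cultured and treated for 24 h in 1:4 diluted CA-MHB, pH 7.4, then diluted into drug-free medium, and OD600 was measured every 20 min. Start-growth-time was the time OD600 passed 0.12. Dose-response curves were fitted with a five-parameter logistic equation to derive EC50.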

[2] = system: P. aeruginosa DSM1117; assay: MIC, standard microdilution assay, growing P. aeruginosa; format: cell-based, Pseudomonas aeruginosa; details: P. aeruginosa
Method in brief: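 Medium: CA-MHB + 40 mM HEPES, pH 7.4 (UPEC, P. aeruginosa, S. aureus); LPM + 30 mM MES, pH 5.5 (UPEC, extra condition); TSB (S. flexneri). Microdilution format, n = 3.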

[3] = system: non-growing P. aeruginosa DSM1117; assay: Dose-dependent killing analysis (CFU spot-plating) of stationary-phase P. aeruginosa; format: cell-based, Pseudomonas aeruginosa; details: for killing, average Δlog10(CFU/ml) / log10(CFU/ml) of treated nongrowing bacteria (single replicates): P. aeruginosa; for log10(CFU/ml) of treated nongrowing bacteria (single replicates): before treatment 8.887
Method in brief: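 Viability by CFU: samples serially diluted 10-fold in PBS, spotted on LB agar, grown overnight at 37 °C, and colonies counted at the lowest resolvable dilution. Non-growing P. aeruginosa DSM1117 had been dosed for 24 h in 1:4 CA-MHB (pH 7.4); three biological replicates.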

[4] = system: non-growing UPEC CFT073; assay: Dose-dependent killing analysis (CFU spot-plating) of stationary-phase UPEC; format: cell-based, Escherichia coli
Method in brief: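 Killing assessed by CFU counts: overnight 37 °C LB agar spot plates (10 μl drops of 10-fold PBS dilutions) scored at the lowest dilution with distinct colonies. Samples were compound-treated non-growing UPEC CFT073, 200 μl per well. Performed as three biological replicates.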

[5] = system: non-growing UPEC CFT073; assay: Dilution-regrowth assay (screen, hit validation, dose-response) on stationary-phase UPEC; format: cell-based, Escherichia coli; details: E. coli, regrowth delay of non-growing bacteria, 24 h treatment, OD600 6 h after 2500-fold dilution, read-out: EC50
Method in brief: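 Regrowth (OD600 after 6 h, 37 °C) of diluted non-growing CFT073, following 24 h compound treatment of 24 h stationary cultures, defines activity relative to untreated control. Screen at 20 µM, validation at 20, 10, 5 µM (duplicates), dose–response in three biological replicates fitted by five-parameter logistic.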

[6] = E. coli in 1:4 CA-MHB (pH 7.4), drug concentration 0.25
[7] = E. coli in 1:4 CA-MHB (pH 7.4), drug concentration 0.25, before treatment 8.977
[8] = E. coli in 1:4 CA-MHB (pH 7.4), drug concentration 0.5
[9] = E. coli in 1:4 CA-MHB (pH 7.4), drug concentration 0.5, before treatment 8.977
[10] = E. coli in 1:4 CA-MHB (pH 7.4), drug concentration 1
[11] = E. coli in 1:4 CA-MHB (pH 7.4), drug concentration 1, before treatment 8.977
[12] = E. coli in 1:4 CA-MHB (pH 7.4), drug concentration 2.5
[13] = E. coli in 1:4 CA-MHB (pH 7.4), drug concentration 2.5, before treatment 8.977
[14] = E. coli in 1:4 CA-MHB (pH 7.4), drug concentration 5
[15] = E. coli in 1:4 CA-MHB (pH 7.4), drug concentration 5, before treatment 8.977
[16] = E. coli in 1:4 CA-MHB (pH 7.4), drug concentration 10
[17] = E. coli in 1:4 CA-MHB (pH 7.4), drug concentration 10, before treatment 8.977
[18] = E. coli in LPM (pH 5.5), drug concentration 0.25
[19] = E. coli in LPM (pH 5.5), drug concentration 0.25, before treatment 7.350
[20] = E. coli in LPM (pH 5.5), drug concentration 0.5
[21] = E. coli in LPM (pH 5.5), drug concentration 0.5, before treatment 7.350
[22] = E. coli in LPM (pH 5.5), drug concentration 1
[23] = E. coli in LPM (pH 5.5), drug concentration 1, before treatment 7.350
[24] = E. coli in LPM (pH 5.5), drug concentration 2.5
[25] = E. coli in LPM (pH 5.5), drug concentration 2.5, before treatment 7.350
[26] = E. coli in LPM (pH 5.5), drug concentration 5
[27] = E. coli in LPM (pH 5.5), drug concentration 5, before treatment 7.350
[28] = E. coli in LPM (pH 5.5), drug concentration 10
[29] = E. coli in LPM (pH 5.5), drug concentration 10, before treatment 7.350

Row | Structure (SMILES) | killing, average Δlog10(CFU/ml) ([3]; drug concentration 0.1) | log10(CFU/ml) of treated nongrowing bacteria (single replicates) ([3]; drug concentration 0.1) | killing, average Δlog10(CFU/ml) ([3]; drug concentration 0.5) | log10(CFU/ml) of treated nongrowing bacteria (single replicates) ([3]; drug concentration 0.5) | killing, average Δlog10(CFU/ml) ([3]; drug concentration 2.5) | log10(CFU/ml) of treated nongrowing bacteria (single replicates) ([3]; drug concentration 2.5) | killing, average Δlog10(CFU/ml) ([3]; drug concentration 10) | log10(CFU/ml) of treated nongrowing bacteria (single replicates) ([3]; drug concentration 10) | killing, average Δlog10(CFU/ml) [4, 6] | log10(CFU/ml) of treated nongrowing bacteria (single replicates) [4, 7] | killing, average Δlog10(CFU/ml) [4, 8] | log10(CFU/ml) of treated nongrowing bacteria (single replicates) [4, 9] | killing, average Δlog10(CFU/ml) [4, 10] | log10(CFU/ml) of treated nongrowing bacteria (single replicates) [4, 11] | killing, average Δlog10(CFU/ml) [4, 12] | log10(CFU/ml) of treated nongrowing bacteria (single replicates) [4, 13] | killing, average Δlog10(CFU/ml) [4, 14] | log10(CFU/ml) of treated nongrowing bacteria (single replicates) [4, 15] | killing, average Δlog10(CFU/ml) [4, 16] | log10(CFU/ml) of treated nongrowing bacteria (single replicates) [4, 17] | further results
1 | O=C(O)c1cn(-c2ccc(F)cc2)c2cc(N3CCNCC3)c(F)cc2c1=O [Sarafloxacin] | 0.295 log10(CFU/ml) | 8.699 log10(CFU/ml) and 8.903 log10(CFU/ml) and 8.176 log10(CFU/ml) | 1.719 log10(CFU/ml) | 7.301 log10(CFU/ml) and 6.602 log10(CFU/ml) and 7.602 log10(CFU/ml) | 3.802 log10(CFU/ml) | 5.301 log10(CFU/ml) and 5.176 log10(CFU/ml) and 4.778 log10(CFU/ml) | 4.887 log10(CFU/ml) | =<4 log10(CFU/ml) | 0.025 log10(CFU/ml) | 9.301 log10(CFU/ml) and 8.477 log10(CFU/ml) and 9.079 log10(CFU/ml) | 0.172 log10(CFU/ml) | 9.000 log10(CFU/ml) and 8.954 log10(CFU/ml) and 8.462 log10(CFU/ml) | 0.391 log10(CFU/ml) | 9.114 log10(CFU/ml) and 8.532 log10(CFU/ml) and 8.114 log10(CFU/ml) | 1.103 log10(CFU/ml) | 8.398 log10(CFU/ml) and 7.903 log10(CFU/ml) and 7.322 log10(CFU/ml) | 1.741 log10(CFU/ml) | 7.491 log10(CFU/ml) and 7.176 log10(CFU/ml) and 7.041 log10(CFU/ml) | 2.143 log10(CFU/ml) | 7.279 log10(CFU/ml) and 6.845 log10(CFU/ml) and 6.380 log10(CFU/ml) | EC50 ([1]; Staphylococcus aureus, DSM2569): 662 nM; MIC ([2]; Pseudomonas aeruginosa, DSM1117, 1:4 diluted CA-MHB pH 7.4, read-out: MIC (μM) 1:4 CA-MHB): 2 µM (≈ 0.771 µg/mL); MIC ([2]; Pseudomonas aeruginosa, DSM1117, CA-MHB pH 7.4, read-out: MIC (μM) CA-MHB): 2 µM (≈ 0.771 µg/mL); killing, average Δlog10(CFU/ml) [4, 18]: 0.072 log10(CFU/ml); log10(CFU/ml) of treated nongrowing bacteria (single replicates) [4, 19]: 7.079 log10(CFU/ml) and 6.477 log10(CFU/ml) and 8.279 log10(CFU/ml); killing, average Δlog10(CFU/ml) [4, 20]: 0.127 log10(CFU/ml); log10(CFU/ml) of treated nongrowing bacteria (single replicates) [4, 21]: 6.778 log10(CFU/ml) (2×) and 8.114 log10(CFU/ml); killing, average Δlog10(CFU/ml) [4, 22]: 0.084 log10(CFU/ml); log10(CFU/ml) of treated nongrowing bacteria (single replicates) [4, 23]: 6.477 log10(CFU/ml) and 7.146 log10(CFU/ml) and 8.176 log10(CFU/ml); killing, average Δlog10(CFU/ml) [4, 24]: 0.011 log10(CFU/ml); log10(CFU/ml) of treated nongrowing bacteria (single replicates) [4, 25]: 7.114 log10(CFU/ml) and 7.000 log10(CFU/ml) and 7.903 log10(CFU/ml); killing, average Δlog10(CFU/ml) [4, 26]: -0.00245 log10(CFU/ml); log10(CFU/ml) of treated nongrowing bacteria (single replicates) [4, 27]: 6.903 log10(CFU/ml) and 7.114 log10(CFU/ml) and 8.041 log10(CFU/ml); killing, average Δlog10(CFU/ml) [4, 28]: 0.353 log10(CFU/ml); log10(CFU/ml) of treated nongrowing bacteria (single replicates) [4, 29]: 6.699 log10(CFU/ml) and 6.845 log10(CFU/ml) and 7.447 log10(CFU/ml); EC50 ([5]; Escherichia coli, pH 7.4, 1:4 CA-MHB): 1720 nM
2 | N[C@@H]1CN(c2c(F)cc3c(=O)c(C(=O)O)cn([C@@H]4C[C@@H]4F)c3c2Cl)CC12CC2 [Sitafloxacin] | 1.534 log10(CFU/ml) | 7.699 log10(CFU/ml) and 7.362 log10(CFU/ml) and 7.000 log10(CFU/ml) | 3.935 log10(CFU/ml) | 5.954 log10(CFU/ml) and 4.903 log10(CFU/ml) and =<4 log10(CFU/ml) | 4.787 log10(CFU/ml) | =<4 log10(CFU/ml) (2×) and 4.301 log10(CFU/ml) | 4.353 log10(CFU/ml) | 5.000 log10(CFU/ml) and 4.602 log10(CFU/ml) and =<4 log10(CFU/ml) | 1.161 log10(CFU/ml) | 8.415 log10(CFU/ml) and 7.602 log10(CFU/ml) and 7.431 log10(CFU/ml) | 2.277 log10(CFU/ml) | 7.255 log10(CFU/ml) and 6.699 log10(CFU/ml) and 6.146 log10(CFU/ml) | 3.175 log10(CFU/ml) | 6.204 log10(CFU/ml) and 5.903 log10(CFU/ml) and 5.301 log10(CFU/ml) | 4.145 log10(CFU/ml) | 5.176 log10(CFU/ml) and 4.477 log10(CFU/ml) and 4.845 log10(CFU/ml) | 4.067 log10(CFU/ml) | 5.255 log10(CFU/ml) and 4.699 log10(CFU/ml) and 4.778 log10(CFU/ml) | 4.500 log10(CFU/ml) | 4.954 log10(CFU/ml) and =<4 log10(CFU/ml) and 4.477 log10(CFU/ml) | EC50 [1]: 106 nM; MIC ([2]; 1:4 diluted CA-MHB pH 7.4, read-out: MIC (μM) 1:4 CA-MHB): 0.5 µM (≈ 0.205 µg/mL); MIC ([2]; CA-MHB pH 7.4, read-out: MIC (μM) CA-MHB): 0.5 µM (≈ 0.205 µg/mL); reduction of bacterial counts, stationary phase P. aeruginosa ([3]; at 0.5 µM, 24 h treatment): more than four; reduction of bacterial counts, non-growing P. aeruginosa ([3]; at 2.5 µM, 1:4 CA-MHB pH 7.4, 24 h treatment): more than four; bactericidal activity against non-growing UPEC (CFU counting) ([4]; 24 h treatment of stationary phase culture): most potent and bactericidal; killing, average Δlog10(CFU/ml) [4, 18]: -0.135 log10(CFU/ml); log10(CFU/ml) of treated nongrowing bacteria (single replicates) [4, 19]: 7.000 log10(CFU/ml) and 7.176 log10(CFU/ml) and 8.279 log10(CFU/ml); killing, average Δlog10(CFU/ml) [4, 20]: 0.023 log10(CFU/ml); log10(CFU/ml) of treated nongrowing bacteria (single replicates) [4, 21]: 6.778 log10(CFU/ml) and 7.000 log10(CFU/ml) and 8.204 log10(CFU/ml); killing, average Δlog10(CFU/ml) [4, 22]: -0.037 log10(CFU/ml); log10(CFU/ml) of treated nongrowing bacteria (single replicates) [4, 23]: 7.146 log10(CFU/ml) and 7.114 log10(CFU/ml) and 7.903 log10(CFU/ml); killing, average Δlog10(CFU/ml) [4, 24]: 0.324 log10(CFU/ml); log10(CFU/ml) of treated nongrowing bacteria (single replicates) [4, 25]: 7.000 log10(CFU/ml) (2×) and 7.079 log10(CFU/ml); killing, average Δlog10(CFU/ml) [4, 26]: 1.016 log10(CFU/ml); log10(CFU/ml) of treated nongrowing bacteria (single replicates) [4, 27]: 6.301 log10(CFU/ml) and 6.954 log10(CFU/ml) and 5.748 log10(CFU/ml); killing, average Δlog10(CFU/ml) [4, 28]: 1.383 log10(CFU/ml); log10(CFU/ml) of treated nongrowing bacteria (single replicates) [4, 29]: 6.279 log10(CFU/ml) and 6.544 log10(CFU/ml) and 5.079 log10(CFU/ml); EC50 ([5]; LPM pH 5.5): 10800 nM; EC50 ([5]; pH 7.4, 1:4 CA-MHB): 187 nM
